Experimental data as given in ChEMBL document CHEMBL1141893, “5-Lipoxygenase inhibition by N-hydroxycarbamates in dual-function compounds” (Bioorg Med Chem Lett, 2005).

Assays:
[1] = biological target: T1, Polyunsaturated fatty acid 5-lipoxygenase (Homo sapiens, UniProt P09917); assay: Inhibitory concentration against 5-lipoxygenase in human whole blood; format: functional, tissue-based
T1 sequence (P09917 whole entry): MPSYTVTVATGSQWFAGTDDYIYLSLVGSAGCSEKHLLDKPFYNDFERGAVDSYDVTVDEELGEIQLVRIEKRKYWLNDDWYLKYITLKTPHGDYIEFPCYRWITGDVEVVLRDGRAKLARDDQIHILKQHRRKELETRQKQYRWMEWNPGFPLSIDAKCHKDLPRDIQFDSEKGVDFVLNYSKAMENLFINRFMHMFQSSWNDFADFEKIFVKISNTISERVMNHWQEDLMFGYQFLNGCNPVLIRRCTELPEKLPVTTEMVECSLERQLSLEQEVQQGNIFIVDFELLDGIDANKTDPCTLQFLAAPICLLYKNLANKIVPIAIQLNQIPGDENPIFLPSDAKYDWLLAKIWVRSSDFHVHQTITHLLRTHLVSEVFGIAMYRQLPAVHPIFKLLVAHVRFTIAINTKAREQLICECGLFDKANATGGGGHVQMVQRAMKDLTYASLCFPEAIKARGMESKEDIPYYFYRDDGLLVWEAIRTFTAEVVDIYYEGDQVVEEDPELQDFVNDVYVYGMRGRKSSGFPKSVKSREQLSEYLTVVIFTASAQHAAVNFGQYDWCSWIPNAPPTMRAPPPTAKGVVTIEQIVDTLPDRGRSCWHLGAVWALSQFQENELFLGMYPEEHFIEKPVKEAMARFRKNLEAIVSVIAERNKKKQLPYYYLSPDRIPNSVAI

[2] = biological target: T1, Polyunsaturated fatty acid 5-lipoxygenase; assay: Inhibitory concentration against human 5-lipoxygenase
Histamine H1 receptor = Histamine H1 receptor (Homo sapiens, UniProt P35367); assay: Binding affinity for human Histamine H1 receptor in CHO K1 cells; format: cell-based
Sequence of Histamine H1 receptor (P35367 whole entry): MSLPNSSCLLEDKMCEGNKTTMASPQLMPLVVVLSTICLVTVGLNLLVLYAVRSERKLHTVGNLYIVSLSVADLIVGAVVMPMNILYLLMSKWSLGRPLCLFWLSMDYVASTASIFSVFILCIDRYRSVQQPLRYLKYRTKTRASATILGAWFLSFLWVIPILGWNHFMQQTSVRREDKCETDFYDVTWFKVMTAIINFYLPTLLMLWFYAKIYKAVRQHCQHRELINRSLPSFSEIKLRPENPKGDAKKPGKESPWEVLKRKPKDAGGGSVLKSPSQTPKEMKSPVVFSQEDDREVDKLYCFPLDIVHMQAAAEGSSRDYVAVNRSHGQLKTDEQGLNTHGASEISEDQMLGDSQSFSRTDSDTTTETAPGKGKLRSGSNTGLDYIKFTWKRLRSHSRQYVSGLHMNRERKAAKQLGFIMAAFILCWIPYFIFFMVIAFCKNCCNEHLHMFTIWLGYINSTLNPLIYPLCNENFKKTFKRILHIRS

Q: Which IC50 [1] does the source give for `CC(C)COC(=O)N(O)CCC#Cc1ccc(OCCCCN2CCN(C(c3ccc(F)cc3)c3ccc(F)cc3)CC2)cc1` here?
A: 176 nM

Q: What about the IC50 [2] of the same molecule?
A: 420 nM

Q: What about the Ki (Histamine H1 receptor) of the same molecule?
A: 7.59 nM

Q: Which results are given for `CCOC(=O)N(O)CCC#Cc1ccc(OCCCCN2CCN(C(c3ccc(F)cc3)c3ccc(F)cc3)CC2)cc1`?
A: IC50 [1]: 72 nM; IC50 [2]: 365 nM; Ki (Histamine H1 receptor): 5.89 nM

Q: With `NC(=O)N(O)CCC#Cc1ccc(OCCCCN2CCN(C(c3ccc(F)cc3)c3ccc(F)cc3)CC2)cc1` as the molecule, how does the IC50 [2] read?
A: 193 nM

Q: How did the IC50 [1] turn out when `COC(=O)N(O)CCC#Cc1ccc(OCCCCN2CCN(C(c3ccc(F)cc3)c3ccc(F)cc3)CC2)cc1` was run?
A: 90 nM

Q: What about the IC50 [2] of the same molecule?
A: 170 nM

Q: And the Ki (Histamine H1 receptor)?
A: 5.01 nM

Q: Which IC50 [1] does the source give for `CC(C)OC(=O)N(O)CCC#Cc1ccc(OCCCCN2CCN(C(c3ccc(F)cc3)c3ccc(F)cc3)CC2)cc1` here?
A: 102 nM

Q: And the IC50 [2]?
A: 335 nM

Q: And the Ki (Histamine H1 receptor)?
A: 9.55 nM

Q: How did the IC50 [1] turn out when `O=C(OCc1ccccc1)N(O)CCC#Cc1ccc(OCCCCN2CCN(C(c3ccc(F)cc3)c3ccc(F)cc3)CC2)cc1` was run?
A: 150 nM

Q: What about the IC50 [2] of the same molecule?
A: 350 nM

Q: And the Ki (Histamine H1 receptor)?
A: 17.8 nM
